# Test results taken from paper PMC9318133 (International Journal of Molecular Sciences, 2022).
# Read-outs that look alike come from different tables or passages of the source.
# Legend:
# human CB1 receptors = target: T1, human CB1 receptors (Homo sapiens, UniProt P21554); parameters: method as in PMID 27527584, PMID 25769232; conditions: read-out: hCB1 CHO Cells IC50; cyclic AMP experiments; mean ± SEM; data elaborated from ref [15],[33]; cited from earlier work
# T1 construct: host or cells: CHO cells
# mouse CB1 receptors [1] = target: T2, mouse CB1 receptors (Mus musculus, UniProt P47746); parameters: method as in PMID 27527584, PMID 25769232; conditions: read-out: Mouse Cortex Membranes CB1 Ki; [3H]-CP-55,940 competition binding; mean ± SEM; data elaborated from ref [15],[33]; cited from earlier work
# T2 construct: membranes from the mouse brain and spleen were used, respectively; from tissue
# CD-1 mice [2] = tested on: CD-1 mice; parameters: method as in PMID 25769232, PMID 25987201; conditions: ED50 + SEM, data elaborated from ref [33],[34]; cited from earlier work
# mouse CB2 receptors [3] = target: T3, mouse CB2 receptors (Mus musculus, UniProt P47936); parameters: method as in PMID 27527584, PMID 25769232; conditions: read-out: Mouse Spleen Membranes CB2 Ki; [3H]-CP-55,940 competition binding; mean ± SEM; data elaborated from ref [15],[33]; cited from earlier work
# T3 construct: membranes from the mouse brain and spleen were used, respectively; from tissue; host or cells: mouse spleen membranes, CD-1 mice
# CD-1 mice [4] = tested on: CD-1 mice; parameters: method as in PMID 25769232, PMID 25987201; conditions: ED50 + SEM, data elaborated from ref [33],[34]; cited from earlier work; remark: listed apart in the source
# CD-1 mice [5] = tested on: CD-1 mice; parameters: method as in PMID 25769232, PMID 25987201; conditions: ED50 + SEM, data elaborated from ref [33],[34]; cited from earlier work; remark: listed apart in the source
# human CB2 receptors [6] = target: T4, human CB2 receptors (Homo sapiens, UniProt P34972); parameters: method as in PMID 27527584, PMID 25769232; conditions: read-out: hCB2 CHO Cells IC50; cyclic AMP experiments; mean ± SEM; data elaborated from ref [15],[33]; cited from earlier work
# T4 construct: host or cells: CHO cells
# CD-1 mice [7] = tested on: CD-1 mice; parameters: method as in PMID 25769232, PMID 25987201; conditions: ED50 + SEM, data elaborated from ref [33],[34]; cited from earlier work; remark: listed apart in the source
# CD-1 mice [8] = tested on: CD-1 mice; parameters: method as in PMID 25769232, PMID 25987201; conditions: ED50 + SEM, data elaborated from ref [33],[34]; cited from earlier work; remark: listed apart in the source
# CD-1 mice [9] = assay: Breath rate evaluation; type: in vivo, mouse
# CD-1 mice [10] = assay: Drag test (number of steps); type: in vivo, mouse
# CD-1 mice [11] = assay: Acoustic response (startle reflex) test; type: in vivo, mouse
# mouse CB2 receptors [12] = target: T3, mouse CB2 receptors; assay: [3H]-CP-55,940 competition binding, mouse spleen membranes
# Procedure: (§1) Following excision from mice, tissues were suspended in 50 mM Tris HCl, pH 7.4, at 4 °C. The mouse brain and spleen tissues were homogenized with a Polytron and subsequently centrifuged for 10 min at 2000× g. The resulting supernatants were filtered and centrifuged for 20 min at 40,000× g, and the pellets were used for competition binding experiments.
# (§2) Competition binding experiments were carried out by incubating 0.5 nM [3H]-CP-55,940 (Perkin Elmer Life and Analytical Sciences, Waltham, MA, USA) and different concentrations of the tested compounds for 90 or 60 min at 30 °C for CB1 or CB2 receptors, respectively. […] Non-specific binding was determined in the presence of 1 μM WIN 55,212-2 [92]. Bound and free radioactivity were separated by filtering the assay mixture through Whatman GF/C glass fiber filters using a Brandel cell harvester (Brandel Instruments, Unterföhring, Germany). The filter-bound radioactivity was counted using a Packard Tri Carb 2810 TR scintillation counter (Perkin Elmer Life and Analytical Sciences, Waltham, MA, USA).
# (§3) The protein concentration was determined according to a Bio-Rad method with bovine serum albumin as a reference standard. Inhibitory binding constants, Ki, were calculated from the IC50 values according to the Cheng and Prusoff equation:Ki = IC50/(1 + [C*]/KD*) where [C*] is the concentration of the radioligand and KD* its dissociation constant. […]
# mouse CB1 receptors [13] = target: T2, mouse CB1 receptors; assay: [3H]-CP-55,940 competition binding, mouse brain (cortex) membranes
# Procedure: as §1, §2, §3
# human CB2 receptors [14] = target: T4, human CB2 receptors; assay: Cyclic AMP assay (forskolin-stimulated) in CHO cells transfected with human CB2 receptors; type: cell-based
# Procedure: CHO cells transfected with human CB1 or CB2 receptors were washed with PBS, detached with trypsin, and centrifuged for 10 min at 200× g.
# Functional experiments were analyzed by non-linear regression analysis using the equation for a sigmoid concentration–response curve (GraphPad Prism, San Diego, CA, USA). All the data are expressed as the mean ± SEM of three independent experiments.
# CD-1 mice [15] = assay: Visual placing response test; type: in vivo, mouse
# CD-1 mice [16] = assay: Core (rectal) temperature evaluation; type: in vivo, mouse
# [17] = 0.01–30 mg/kg i.p., monitored over 5 h
# [18] = Mus musculus, ip, mice, ED50 + SEM
# T4 sequence (P34972 whole entry): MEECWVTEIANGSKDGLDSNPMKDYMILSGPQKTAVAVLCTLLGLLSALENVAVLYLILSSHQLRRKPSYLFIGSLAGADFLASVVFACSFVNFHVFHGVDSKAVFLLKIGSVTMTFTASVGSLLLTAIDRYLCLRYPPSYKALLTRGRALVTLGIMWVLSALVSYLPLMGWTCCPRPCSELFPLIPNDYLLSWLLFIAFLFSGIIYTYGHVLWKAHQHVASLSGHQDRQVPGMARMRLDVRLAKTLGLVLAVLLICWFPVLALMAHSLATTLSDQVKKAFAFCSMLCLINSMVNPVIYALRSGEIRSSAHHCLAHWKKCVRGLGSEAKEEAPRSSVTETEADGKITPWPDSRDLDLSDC
# T3 sequence (P47936 whole entry): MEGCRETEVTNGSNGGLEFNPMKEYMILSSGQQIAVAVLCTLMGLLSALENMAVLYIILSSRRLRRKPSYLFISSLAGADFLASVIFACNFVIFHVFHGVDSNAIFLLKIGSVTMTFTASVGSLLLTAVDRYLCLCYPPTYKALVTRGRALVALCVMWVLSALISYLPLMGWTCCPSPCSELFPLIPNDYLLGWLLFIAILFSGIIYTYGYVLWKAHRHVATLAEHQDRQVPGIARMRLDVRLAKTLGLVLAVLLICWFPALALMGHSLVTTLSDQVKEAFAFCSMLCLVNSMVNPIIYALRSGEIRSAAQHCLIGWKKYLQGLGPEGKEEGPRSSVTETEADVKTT
# T2 sequence (P47746 whole entry): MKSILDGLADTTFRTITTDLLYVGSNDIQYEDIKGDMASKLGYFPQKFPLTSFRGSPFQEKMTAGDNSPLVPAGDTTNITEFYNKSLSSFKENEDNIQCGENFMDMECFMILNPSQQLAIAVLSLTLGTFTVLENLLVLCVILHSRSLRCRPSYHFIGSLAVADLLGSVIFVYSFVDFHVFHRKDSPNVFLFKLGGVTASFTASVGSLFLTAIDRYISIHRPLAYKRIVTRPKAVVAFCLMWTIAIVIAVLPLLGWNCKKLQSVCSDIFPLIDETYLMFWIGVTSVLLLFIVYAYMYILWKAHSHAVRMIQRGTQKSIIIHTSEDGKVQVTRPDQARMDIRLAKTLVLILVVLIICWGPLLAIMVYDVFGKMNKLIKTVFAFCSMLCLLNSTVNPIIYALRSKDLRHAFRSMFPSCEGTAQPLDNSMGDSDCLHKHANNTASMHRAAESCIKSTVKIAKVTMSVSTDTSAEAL
# T1 sequence (P21554 whole entry): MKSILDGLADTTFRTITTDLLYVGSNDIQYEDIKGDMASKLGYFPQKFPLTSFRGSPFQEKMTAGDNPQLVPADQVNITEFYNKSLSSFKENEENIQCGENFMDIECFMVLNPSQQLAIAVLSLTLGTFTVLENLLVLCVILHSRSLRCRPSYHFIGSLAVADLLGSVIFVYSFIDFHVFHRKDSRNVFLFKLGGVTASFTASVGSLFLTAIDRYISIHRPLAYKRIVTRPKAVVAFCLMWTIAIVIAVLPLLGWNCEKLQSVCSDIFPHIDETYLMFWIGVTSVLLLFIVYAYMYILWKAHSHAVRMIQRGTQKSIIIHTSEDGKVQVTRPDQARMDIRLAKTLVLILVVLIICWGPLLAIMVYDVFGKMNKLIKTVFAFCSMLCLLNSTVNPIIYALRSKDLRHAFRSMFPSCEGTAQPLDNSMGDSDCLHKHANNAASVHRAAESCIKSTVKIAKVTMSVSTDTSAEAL
smiles,measurement,setting,value
"CCCCCn1cc(C(=O)c2cccc3ccccc23)c2ccccc21 [JWH-018, 1-naphthalenyl(1-pentyl-1H-indol-3-yl)-methanone]",IC50,human CB1 receptors,13.7 ± 1.04 nM
same,Ki,mouse CB1 receptors [1],5.82 ± 0.44 nM
same,ED50 Visual Placing,CD-1 mice [2],0.7 ± 0.06 mg/kg
same,Ki,mouse CB2 receptors [3],7.13 ± 0.53 nM
same,ED50 Core Temperature,CD-1 mice [4],1.7 ± 0.04 mg/kg
same,ED50 Startle Reflex,CD-1 mice [5],0.53 ± 0.05 mg/kg
same,IC50,human CB2 receptors [6],11.6 ± 0.97 nM
same,ED50 Tail Pinch,CD-1 mice [7],1.8 ± 0.11 mg/kg
same,ED50 Drag Test,CD-1 mice [8],2.4 ± 0.12 mg/kg
"CCCCCn1cc(Cc2cccc3ccccc23)c2ccccc21 [JWH-175, 3-(1-naphthalenylmethyl)-1-pentyl-1H-indole]",effect on breath rate,CD-1 mice [9]; [17],dose-dependently reduced the breath rate
same,ED50,CD-1 mice [9]; [18],1.7 ± 0.15 mg/kg
same,dose at which inhibitory effect on breath rate was significant,"CD-1 mice [9]; i.p., after 120 min, persisted up to 5 h",0.1 mg/kg
same,effect on motor activity in the drag test at low dose,"CD-1 mice [10]; 0.1 mg/kg i.p., lasted up to 280 min",facilitated
same,effect on motor activity in the drag test at higher doses,CD-1 mice [10]; 6–30 mg/kg i.p.,inhibited
same,ED50,"CD-1 mice [10]; Mus musculus, ip, mice, ED50 + SEM, calculated on inhibitory effect of the highest doses",10.9 ± 0.12 mg/kg
same,effect on acoustic response,CD-1 mice [11]; [17],dose-dependently reduced
same,ED50,CD-1 mice [11]; [18],4 ± 0.03 mg/kg
same,Ki,mouse CB2 receptors [12],487 ± 39 nM
same,Ki,mouse CB1 receptors [13],33.6 ± 2.4 nM
same,IC50,human CB2 receptors [14],864 ± 61 nM
same,effect on visual placing response,CD-1 mice [15]; [17],dose-dependently reduced the visual placing response
same,ED50,CD-1 mice [15]; [18],5.2 ± 0.08 mg/kg
same,lowest dose tested with significant inhibitory effect on visual placing response,CD-1 mice [15]; i.p.,0.01 mg/kg
same,effect on core temperature,CD-1 mice [16]; [17],reduced
same,ED50,CD-1 mice [16]; [18],5.6 ± 0.04 mg/kg
